{
  "source": "patent US20260034112A1",
  "about": "“MULTI-CYCLIC IRAK1 AND IRAK4 INHIBITING COMPOUNDS AND USES THEREOF” (CHILDREN'S HOSPITAL MEDICAL CENTER, priority 2022, published 2026)",
  "tested_on": "THP1 cells",
  "format": "cell-based, human",
  "details": "PF-06650833 vs DMSO in THP1 cells",
  "note": "Read-outs that look alike come from different tables or passages of the source.",
  "data": [
    {"compound": "CC[C@@H]1[C@H](F)C(=O)N[C@@H]1COc1nccc2cc(C(N)=O)c(OC)cc12", "note": "[PF-06650833, Zimlovisertib]", "values": [
      {"measurement": "Log(FC)", "setting": "gene ACVR1C", "result": "−0.6723"},
      {"measurement": "Log(FC)", "setting": "gene ADPGK-AS1", "result": "−0.6683"},
      {"measurement": "Log(FC)", "setting": "gene ALDH1A3", "result": "−0.6705"},
      {"measurement": "Log(FC)", "setting": "gene APOBR", "result": "−0.6497"},
      {"measurement": "Log(FC)", "setting": "gene APOC1", "result": "−0.67"},
      {"measurement": "Log(FC)", "setting": "gene AQP3", "result": "−0.6432"},
      {"measurement": "Log(FC)", "setting": "gene ARHGAP25", "result": "−0.5895"},
      {"measurement": "Log(FC)", "setting": "gene ARRDC3-AS1", "result": "−0.5996"},
      {"measurement": "Log(FC)", "setting": "gene ASGR2", "result": "−0.631"},
      {"measurement": "Log(FC)", "setting": "gene BMP8B", "result": "−0.6206"},
      {"measurement": "Log(FC)", "setting": "gene BPI", "result": "−0.6416"},
      {"measurement": "Log(FC)", "setting": "gene C1QL4", "result": "−0.5987"},
      {"measurement": "Log(FC)", "setting": "gene C1orf226", "result": "−0.604"},
      {"measurement": "Log(FC)", "setting": "gene C1orf228", "result": "−0.634"},
      {"measurement": "Log(FC)", "setting": "gene C3", "result": "−0.6607"},
      {"measurement": "Log(FC)", "setting": "gene C19orf35", "result": "−0.675"},
      {"measurement": "Log(FC)", "setting": "gene C19orf59", "result": "−0.6476"},
      {"measurement": "Log(FC)", "setting": "gene C20orf197", "result": "−0.6914"},
      {"measurement": "Log(FC)", "setting": "gene CACNA2D3", "result": "−0.6049"},
      {"measurement": "Log(FC)", "setting": "gene CALHM2", "result": "−0.6575"},
      {"measurement": "Log(FC)", "setting": "gene CCDC78", "result": "−0.6022"},
      {"measurement": "Log(FC)", "setting": "gene CCL23", "result": "−0.6739"},
      {"measurement": "Log(FC)", "setting": "gene CD300LB", "result": "−0.5972"},
      {"measurement": "Log(FC)", "setting": "gene CENPH", "result": "−0.6701"},
      {"measurement": "Log(FC)", "setting": "gene DGKG", "result": "−0.6202"},
      {"measurement": "Log(FC)", "setting": "gene EVI2B", "result": "−0.6362"},
      {"measurement": "Log(FC)", "setting": "gene FAM111B", "result": "−0.6646"},
      {"measurement": "Log(FC)", "setting": "gene FAM161B", "result": "−0.6003"},
      {"measurement": "Log(FC)", "setting": "gene FAS", "result": "−0.6791"},
      {"measurement": "Log(FC)", "setting": "gene FAT4", "result": "−0.6913"},
      {"measurement": "Log(FC)", "setting": "gene FMO5", "result": "−0.639"},
      {"measurement": "Log(FC)", "setting": "gene FOS", "result": "−0.5974"},
      {"measurement": "Log(FC)", "setting": "gene FOSL1", "result": "−0.6175"},
      {"measurement": "Log(FC)", "setting": "gene GAPT", "result": "−0.6025"},
      {"measurement": "Log(FC)", "setting": "gene GIPC3", "result": "−0.6076"},
      {"measurement": "Log(FC)", "setting": "gene GNG12", "result": "−0.6632"},
      {"measurement": "Log(FC)", "setting": "gene GPR35", "result": "−0.6621"},
      {"measurement": "Log(FC)", "setting": "gene HSPA1L", "result": "−0.6007"},
      {"measurement": "Log(FC)", "setting": "gene HYDIN2", "result": "−0.6113"},
      {"measurement": "Log(FC)", "setting": "gene IL1R1", "result": "−0.6855"},
      {"measurement": "Log(FC)", "setting": "gene IL16", "result": "−0.667"},
      {"measurement": "Log(FC)", "setting": "gene IQGAP2", "result": "−0.5919"},
      {"measurement": "Log(FC)", "setting": "gene KCNA3", "result": "−0.6759"},
      {"measurement": "Log(FC)", "setting": "gene KIF21B", "result": "−0.6912"},
      {"measurement": "Log(FC)", "setting": "gene KLHL30", "result": "−0.6632"},
      {"measurement": "Log(FC)", "setting": "gene KREMEN2", "result": "−0.6258"},
      {"measurement": "Log(FC)", "setting": "gene LDOC1", "result": "−0.6494"},
      {"measurement": "Log(FC)", "setting": "gene LHFPL2", "result": "−0.6019"},
      {"measurement": "Log(FC)", "setting": "gene LINC01094", "result": "−0.6762"},
      {"measurement": "Log(FC)", "setting": "gene LOC81691", "result": "−0.6095"},
      {"measurement": "Log(FC)", "setting": "gene LOC339862", "result": "−0.6552"},
      {"measurement": "Log(FC)", "setting": "gene LOC100093631", "result": "−0.631"},
      {"measurement": "Log(FC)", "setting": "gene LOC100507642", "result": "−0.6508"},
      {"measurement": "Log(FC)", "setting": "gene LOC101927841", "result": "−0.6312"},
      {"measurement": "Log(FC)", "setting": "gene LOC101929119", "result": "−0.6138"},
      {"measurement": "Log(FC)", "setting": "gene LOC101929545", "result": "−0.5904"},
      {"measurement": "Log(FC)", "setting": "gene LOC102723883", "result": "−0.5967"},
      {"measurement": "Log(FC)", "setting": "gene MPEG1", "result": "−0.6879"},
      {"measurement": "Log(FC)", "setting": "gene MPO", "result": "−0.6316"},
      {"measurement": "Log(FC)", "setting": "gene MPZ", "result": "−0.5945"},
      {"measurement": "Log(FC)", "setting": "gene MTMR11", "result": "−0.6705"},
      {"measurement": "Log(FC)", "setting": "gene MUC19", "result": "−0.6358"},
      {"measurement": "Log(FC)", "setting": "gene NCALD", "result": "−0.6"},
      {"measurement": "Log(FC)", "setting": "gene NHLRC3", "result": "−0.66"},
      {"measurement": "Log(FC)", "setting": "gene NHSL2", "result": "−0.639"},
      {"measurement": "Log(FC)", "setting": "gene NMNAT2", "result": "−0.6786"},
      {"measurement": "Log(FC)", "setting": "gene PAX8", "result": "−0.674"},
      {"measurement": "Log(FC)", "setting": "gene PCED1B-AS1", "result": "−0.6355"},
      {"measurement": "Log(FC)", "setting": "gene PDCD4", "result": "−0.6069"},
      {"measurement": "Log(FC)", "setting": "gene PODNL1", "result": "−0.6661"},
      {"measurement": "Log(FC)", "setting": "gene PRTN3", "result": "−0.6776"},
      {"measurement": "Log(FC)", "setting": "gene PSTPIP1", "result": "−0.6238"},
      {"measurement": "Log(FC)", "setting": "gene RGS3", "result": "−0.6231"},
      {"measurement": "Log(FC)", "setting": "gene RPSAP9", "result": "−0.6104"},
      {"measurement": "Log(FC)", "setting": "gene RSPO1", "result": "−0.6269"},
      {"measurement": "Log(FC)", "setting": "gene S1PR3", "result": "−0.6476"},
      {"measurement": "Log(FC)", "setting": "gene S1PR5", "result": "−0.6503"},
      {"measurement": "Log(FC)", "setting": "gene SCIMP", "result": "−0.6308"},
      {"measurement": "Log(FC)", "setting": "gene SERPINA1", "result": "−0.615"},
      {"measurement": "Log(FC)", "setting": "gene SETBP1", "result": "−0.6709"},
      {"measurement": "Log(FC)", "setting": "gene SIM1", "result": "−0.6107"},
      {"measurement": "Log(FC)", "setting": "gene SLC2A3", "result": "−0.6056"},
      {"measurement": "Log(FC)", "setting": "gene SLC6A11", "result": "−0.6327"},
      {"measurement": "Log(FC)", "setting": "gene SLC9A7", "result": "−0.6539"},
      {"measurement": "Log(FC)", "setting": "gene SNORA73A", "result": "−0.6228"},
      {"measurement": "Log(FC)", "setting": "gene SNX10", "result": "−0.6217"},
      {"measurement": "Log(FC)", "setting": "gene SWT1", "result": "−0.6012"},
      {"measurement": "Log(FC)", "setting": "gene SYN3", "result": "−0.6041"},
      {"measurement": "Log(FC)", "setting": "gene SYTL1", "result": "−0.5922"},
      {"measurement": "Log(FC)", "setting": "gene TACC2", "result": "−0.6004"},
      {"measurement": "Log(FC)", "setting": "gene THBS4", "result": "−0.6785"},
      {"measurement": "Log(FC)", "setting": "gene TLR1", "result": "−0.6365"},
      {"measurement": "Log(FC)", "setting": "gene TMEM45A", "result": "−0.5913"},
      {"measurement": "Log(FC)", "setting": "gene TMEM238", "result": "−0.6139"},
      {"measurement": "Log(FC)", "setting": "gene TNFSF10", "result": "−0.6794"},
      {"measurement": "Log(FC)", "setting": "gene TNS1", "result": "−0.6915"},
      {"measurement": "Log(FC)", "setting": "gene TREM1", "result": "−0.6699"},
      {"measurement": "Log(FC)", "setting": "gene TRIM72", "result": "−0.6733"},
      {"measurement": "Log(FC)", "setting": "gene ZNF630", "result": "−0.6307"},
      {"measurement": "Log(FC)", "setting": "gene ZNF836", "result": "−0.606"}
    ]}
  ]
}
